Experimental data: ChEMBL document CHEMBL4825749, “Pyrimidine-2,4-dione targets STAT3 signaling pathway to induce cytotoxicity in hepatocellular carcinoma cells” (Bioorg Med Chem Lett, 2021)
The source made the active and inactive calls. No cut-off for these calls is given here.

How the values were obtained:
[1] = Cytotoxicity against human HCCLM3 cells assessed as reduction in cell viability measured upto 72 hrs by MTT assay; format: functional, cell-based; conditions: HCCLM3, 72 h
HepG2 [2] = test: Cytotoxicity against human HepG2 cells assessed as reduction in cell viability measured upto 72 hrs by MTT assay; format: functional, cell-based; conditions: HepG2, 72 h
HCCLM3 [3] = test: Induction of apoptosis in human HCCLM3 cells assessed as decrease in Survivin expression at 25 uM by measured up to 48 hrs Western blot analysis; format: functional, cell-based; conditions: time hrs <=48
[4] = biological target: Signal transducer and activator of transcription 3 (Homo sapiens) (UniProt P40763); test: Inhibition of STAT3 activation in human HepG2 cells assessed as decrease in STAT3 phosphorylation at Y705 residue at 25 uM by Western blot analysis; format: cell-based; conditions: time hrs <=12, TDE = time-dependent effect
[5] = biological target: Signal transducer and activator of transcription 3 (Homo sapiens) (UniProt P40763); test: Inhibition of STAT3 in human HepG2 cell lysate assessed as suppression of STAT3-DNA interaction at 25 uM by ELISA; format: subcellular; conditions: time hrs <=12, TDE = time-dependent effect
[6] = biological target: Signal transducer and activator of transcription 3 (Homo sapiens) (UniProt P40763); test: Inhibition of STAT3 in human HCCLM3 cell lysate assessed as suppression of STAT3-DNA interaction at 25 uM by ELISA; format: subcellular; conditions: time hrs <=12, TDE = time-dependent effect
[7] = Induction of cell cycle arrest in human HCCLM3 cells assessed as accumulation sub-G1 phase at 50 uM incubated for 72 hrs by propidium iodide staining based flow cytometry analysis relative to control; format: functional
[8] = Induction of cell cycle arrest in human HCCLM3 cells assessed as accumulation sub-G1 phase at 50 uM incubated for 24 hrs by propidium iodide staining based flow cytometry analysis relative to control; format: functional
HepG2 [9] = test: Induction of cell cycle arrest in human HepG2 cells assessed as accumulation sub-G1 phase at 50 uM incubated for 24 hrs by propidium iodide staining based flow cytometry analysis relative to control; format: functional
HCCLM3 [10] = test: Antiinvasive activity in human HCCLM3 cells at 50 nM incubated for 8 hrs in presence of CXCL12 by crystal violet staining based assay; format: functional, cell-based
HepG2 [11] = test: Cytotoxicity against human HepG2 cells assessed as cell viability up to 50 uM measured upto 72 hrs by MTT assay; format: functional, cell-based; conditions: dose microM <=50, time hrs <=72
[12] = biological target: T1, Signal transducer and activator of transcription 5A (Homo sapiens) (UniProt P42229); test: […] in human HepG2 cells assessed as decrease in STAT3 phosphorylation at Y694 residue at 25 uM by Western blot analysis; format: cell-based
T1 sequence (whole entry): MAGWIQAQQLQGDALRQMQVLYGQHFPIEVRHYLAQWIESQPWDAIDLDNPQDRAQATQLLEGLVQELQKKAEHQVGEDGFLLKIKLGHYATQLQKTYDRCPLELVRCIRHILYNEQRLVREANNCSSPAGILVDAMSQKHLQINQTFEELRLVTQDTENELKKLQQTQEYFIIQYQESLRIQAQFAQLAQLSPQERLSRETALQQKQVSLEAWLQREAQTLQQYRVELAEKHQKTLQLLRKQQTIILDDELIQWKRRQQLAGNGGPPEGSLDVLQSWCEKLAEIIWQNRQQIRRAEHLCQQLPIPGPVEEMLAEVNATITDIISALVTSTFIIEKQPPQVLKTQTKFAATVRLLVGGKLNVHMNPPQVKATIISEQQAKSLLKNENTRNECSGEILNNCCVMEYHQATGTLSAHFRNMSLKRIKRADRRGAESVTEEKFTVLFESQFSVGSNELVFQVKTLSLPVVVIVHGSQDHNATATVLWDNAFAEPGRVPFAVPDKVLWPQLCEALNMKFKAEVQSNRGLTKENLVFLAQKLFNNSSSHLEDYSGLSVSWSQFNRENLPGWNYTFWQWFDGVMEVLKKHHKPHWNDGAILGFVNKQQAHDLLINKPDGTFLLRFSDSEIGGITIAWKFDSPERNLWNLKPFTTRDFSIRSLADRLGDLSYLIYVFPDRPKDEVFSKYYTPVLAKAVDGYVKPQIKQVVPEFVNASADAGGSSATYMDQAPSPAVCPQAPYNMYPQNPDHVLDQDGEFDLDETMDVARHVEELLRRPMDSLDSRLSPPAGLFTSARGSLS

HCCLM3 [13] = test: Induction of apoptosis in human HCCLM3 cells assessed as decrease in Bcl2 expression at 25 uM by measured up to 48 hrs Western blot analysis; format: functional, cell-based; conditions: time hrs <=48
HCCLM3 [14] = test: Induction of apoptosis in human HCCLM3 cells assessed as decrease in Cyclin D1 expression at 25 uM by measured up to 48 hrs Western blot analysis; format: functional, cell-based; conditions: time hrs <=48
[15] = biological target: Signal transducer and activator of transcription 3 (Homo sapiens) (UniProt P40763); test: Inhibition of STAT3 activation in human HCCLM3 cells assessed as decrease in STAT3 phosphorylation at Y705 residue at 25 uM by Western blot analysis; format: cell-based; conditions: time hrs <=12, TDE = time-dependent effect
HepG2 [16] = test: Induction of cell cycle arrest in human HepG2 cells assessed as accumulation sub-G1 phase at 50 uM incubated for 48 hrs by propidium iodide staining based flow cytometry analysis relative to control; format: functional
HepG2 [17] = test: Antimigratory activity against human HepG2 cells assessed as inhibition of cell migration at 50 uM; format: functional, cell-based
HCCLM3 [18] = test: Antimigratory activity against human HCCLM3 cells assessed as inhibition of cell migration at 50 uM; format: functional, cell-based
HCCLM3 [19] = test: Cytotoxicity against human HCCLM3 cells assessed as cell viability up to 50 uM measured upto 72 hrs by MTT assay; format: functional, cell-based; conditions: dose microM <=50, time hrs <=72
[20] = Induction of cell cycle arrest in human HCCLM3 cells assessed as accumulation sub-G1 phase at 50 uM incubated for 48 hrs by propidium iodide staining based flow cytometry analysis relative to control; format: functional
HCCLM3 [21] = test: Induction of apoptosis in human HCCLM3 cells assessed as increase in Cleaved caspase-3 expression at 25 uM by measured up to 48 hrs Western blot analysis; format: functional, cell-based; conditions: time hrs <=48
HepG2 [22] = test: Induction of cell cycle arrest in human HepG2 cells assessed as accumulation sub-G1 phase at 50 uM incubated for 72 hrs by propidium iodide staining based flow cytometry analysis relative to control; format: functional
HepG2 [23] = test: Antiinvasive activity in human HepG2 cells at 50 nM incubated for 8 hrs in presence of CXCL12 by crystal violet staining based assay; format: functional, cell-based
HCCLM3 [24] = test: Antimigratory activity against human HCCLM3 cells assessed as inhibition of cell migration at 50 uM in presence of CXCL12; format: functional, cell-based
L02 = test: Cytotoxicity against human L02 cells assessed as cell viability measured by MTT assay; format: cell-based
[25] = biological target: T1, Signal transducer and activator of transcription 5A (Homo sapiens); test: […] in human HCCLM3 cells assessed as decrease in STAT3 phosphorylation at Y694 residue at 25 uM by Western blot analysis; format: cell-based
HepG2 [26] = test: Antimigratory activity against human HepG2 cells assessed as inhibition of cell migration at 50 uM in presence of CXCL12; format: functional, cell-based

Chain of Signal transducer and activator of transcription 3 (Homo sapiens) (P40763 whole entry): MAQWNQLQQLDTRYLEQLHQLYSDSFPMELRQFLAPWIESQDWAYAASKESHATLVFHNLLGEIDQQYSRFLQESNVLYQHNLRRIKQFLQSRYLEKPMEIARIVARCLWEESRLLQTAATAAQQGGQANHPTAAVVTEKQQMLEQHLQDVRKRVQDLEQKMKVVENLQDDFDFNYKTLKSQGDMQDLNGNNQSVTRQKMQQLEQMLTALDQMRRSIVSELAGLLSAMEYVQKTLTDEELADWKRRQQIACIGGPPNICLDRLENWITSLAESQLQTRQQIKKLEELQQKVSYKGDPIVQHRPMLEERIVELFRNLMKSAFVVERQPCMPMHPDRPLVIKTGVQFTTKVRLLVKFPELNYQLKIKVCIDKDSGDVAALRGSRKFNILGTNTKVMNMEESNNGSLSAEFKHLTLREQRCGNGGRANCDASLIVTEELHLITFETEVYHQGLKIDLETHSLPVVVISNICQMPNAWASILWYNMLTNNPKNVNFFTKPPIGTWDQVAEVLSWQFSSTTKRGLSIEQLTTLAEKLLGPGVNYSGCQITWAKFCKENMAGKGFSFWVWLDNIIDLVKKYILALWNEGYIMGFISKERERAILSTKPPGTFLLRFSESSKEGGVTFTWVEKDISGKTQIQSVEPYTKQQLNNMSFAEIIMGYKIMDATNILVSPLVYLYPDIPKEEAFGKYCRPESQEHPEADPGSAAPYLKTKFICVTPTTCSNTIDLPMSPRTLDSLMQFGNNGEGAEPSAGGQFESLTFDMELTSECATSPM

CC(C)Oc1cccc(-c2cc(=O)n(C)c(=O)[nH]2)c1
IC50 [1]: 41.5 µM | IC50 (HepG2 [2]): 47.6 µM

Cn1c(=O)cc(-c2cccc3ccccc23)[nH]c1=O
Activity (HCCLM3 [3]): Active | inhibition [4]: Tde | inhibition [5]: Tde | inhibition [6]: Tde | Activity [7]: 67.3% | Activity [8]: 39.3% | Activity (HepG2 [9]): 39.3% | Activity (HCCLM3 [10]): Active | Activity (HepG2 [11]): Dose-Dependent Effect | inhibition [12]: inactive | Activity (HCCLM3 [13]): Active | Activity (HCCLM3 [14]): Active | inhibition [15]: Tde | Activity (HepG2 [16]): 46.5% | Activity (HepG2 [17]): Active | Activity (HCCLM3 [18]): Active | Activity (HCCLM3 [19]): Dose-Dependent Effect | Activity [20]: 46.5% | Activity (HCCLM3 [21]): Active | Activity (HepG2 [22]): 67.3% | Activity (HepG2 [23]): Active | Activity (HCCLM3 [24]): Active | Activity (L02): Toxic | IC50 [1]: 42.6 µM | inhibition [25]: inactive | IC50 (HepG2 [2]): 20.9 µM | Activity (HepG2 [26]): Active

C[C@H](NC(=O)/C(C#N)=C/c1cccc(Br)n1)c1ccccc1
Activity (HepG2 [11]): Dose-Dependent Effect | Activity (HCCLM3 [19]): Dose-Dependent Effect
